From patent US20210078988A1, “MODULATORS OF INDOLEAMINE 2,3-DIOXYGENASE” (GLAXOSMITHKLINE INTELLECTUAL PROPERTY DEVELOPMENT LIMITED, priority 2017, published 2021)

Molecular target: T1, indoleamine 2, 3-dioxygenase (IDO1) (Homo sapiens, UniProt P14902)
T1 construct: human peripheral blood mononuclear cells (PBMC) (PB003F; host or cells: human PBMC stimulated with IFN-gamma and LPS
Experiment: PBMC IDO1 assay (kynurenine detection via mass spectrometry)
Type: cell-based
Conditions: human PBMC stimulated with IFN-γ and LPS, 2 days, kynurenine by mass spectrometry; read-out: IDO1 PBMC pIC50 (converted)
Summary of the method: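 Human PBMCs (50,000/well) stimulated with IFN-γ 100 ng/ml and LPS 50 ng/ml were exposed to 11-point 3-fold compound dilutions for 2 days at 37 °C. Supernatant kynurenine was quantified by RapidFire MS relative to an internal standard; parallel CellTiter-Glo ATP luminescence measured cytotoxicity, with four-parameter curve fitting.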

T1 sequence (P14902 whole entry): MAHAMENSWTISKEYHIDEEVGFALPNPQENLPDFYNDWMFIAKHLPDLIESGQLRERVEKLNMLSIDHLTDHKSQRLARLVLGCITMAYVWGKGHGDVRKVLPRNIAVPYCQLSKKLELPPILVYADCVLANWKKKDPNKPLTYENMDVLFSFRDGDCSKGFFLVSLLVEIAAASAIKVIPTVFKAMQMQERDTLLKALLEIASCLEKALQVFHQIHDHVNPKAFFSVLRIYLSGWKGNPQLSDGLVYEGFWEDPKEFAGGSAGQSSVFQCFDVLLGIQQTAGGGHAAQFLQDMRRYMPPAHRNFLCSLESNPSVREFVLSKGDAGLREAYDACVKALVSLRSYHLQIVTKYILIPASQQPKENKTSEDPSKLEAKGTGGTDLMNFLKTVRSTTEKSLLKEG

Structure (SMILES)	IC50 [nM]
CC(C)(C)OC(=O)N1CCC(CC(NC(=O)c2ccc(C3CC3)s2)c2ccccc2)CC1 (centres unmarked) [Example 98, tert-butyl 4-(2-(5-cyclopropylthiophene-2-carboxamido)-2-phenylethyl)piperidine-1-carboxylate]	25.1
CC(C)C(CC1CCN(C(=O)OC(C)(C)C)CC1)NC(=O)c1ccc(Cl)s1 (centres unmarked) [Example 99, tert-butyl 4-(2-(5-chlorothiophene-2-carboxamido)-3-methylbutyl)piperidine-1-carboxylate]	25.1
O=C(NC(CC1CCN(C(=O)OC2CCCC2)CC1)c1ccccc1)c1ccc(Cl)cc1 (centres unmarked) [Example 100, cyclopentyl 4-(2-(4-chlorobenzamido)-2-phenylethyl)piperidine-1-carboxylate]	25.1
CC(C)(C)OC(=O)N1CCC(CC(NC(=O)c2ccc(I)c(F)c2)c2ccccc2)CC1 (centres unmarked) [Example 101, tert-butyl 4-(2-(3-fluoro-4-iodobenzamido)-2-phenylethyl)piperidine-1-carboxylate]	25.1
CCOC(=O)N1CCC(CC(NC(=O)c2ccc(Cl)cc2)c2ccccc2)CC1 (centres unmarked) [Example 102, ethyl 4-(2-(4-chlorobenzamido)-2-phenylethyl)piperidine-1-carboxylate]	25.1
CC(C)OC(=O)N1CCC(CC(NC(=O)c2ccc(Cl)cc2)c2ccccc2)CC1 (centres unmarked) [Example 103, isopropyl 4-(2-(4-chlorobenzamido)-2-phenylethyl)piperidine-1-carboxylate]	25.1
O=C(NC(CC1CCN(C(=O)Oc2ccccc2)CC1)c1ccccc1)c1ccc(Cl)cc1 (centres unmarked) [Example 104, phenyl 4-(2-(4-chlorobenzamido)-2-phenylethyl)piperidine-1-carboxylate]	25.1
O=C(NC(CC1CCN(C(=O)OCC2CC2)CC1)c1ccccc1)c1ccc(Cl)cc1 (centres unmarked) [Example 105, cyclopropylmethyl 4-(2-(4-chlorobenzamido)-2-phenylethyl)piperidine-1-carboxylate]	25.1
CCc1ccc(C(=O)NC(CC2CCN(C(=O)OC(C)(C)C)CC2)C2CCCCC2)s1 (centres unmarked) [Example 106, tert-butyl 4-(2-cyclohexyl-2-(5-ethylthiophene-2-carboxamido)ethyl)piperidine-1-carboxylate]	25.1
CC(C)(C)OC(=O)N1CCC(CC(NC(=O)c2ccc(F)cc2)c2ccccc2)CC1 (centres unmarked) [Example 107, tert-butyl 4-(2-(4-fluorobenzamido)-2-phenylethyl)piperidine-1-carboxylate]	31.6
CCOC(=O)N1CCC(CC(NC(=O)c2ccc(F)cc2)C2CC2)CC1 (centres unmarked) [Example 108, ethyl 4-(2-cyclopropyl-2-(4-fluorobenzamido)ethyl)piperidine-1-carboxylate]	31.6
COc1ccc(C(=O)NC(CC2CCN(C(=O)OC(C)(C)C)CC2)c2ccccc2)cc1F (centres unmarked) [Example 109, tert-butyl 4-(2-(3-fluoro-4-methoxybenzamido)-2-phenylethyl)piperidine-1-carboxylate]	31.6
CC(C)(C)OC(=O)N1CCC(CC(NC(=O)c2ccc(C(F)(F)F)cc2)c2ccccc2)CC1 (centres unmarked) [Example 110, tert-butyl 4-(2-phenyl-2-(4-(trifluoromethyl)benzamido)ethyl)piperidine-1-carboxylate]	31.6
COc1ccc(C(CC2CCN(C(=O)OC(C)(C)C)CC2)NC(=O)c2ccc(SC)cc2)cn1 (centres unmarked) [Example 111, tert-butyl 4-(2-(6-methoxypyridin-3-yl)-2-(4-(methylthio)benzamido)ethyl)piperidine-1-carboxylate]	31.6
CCN(CC)c1nnc(C(CC2CCN(C(=O)OC(C)(C)C)CC2)NC(=O)c2ccc(F)cc2)o1 (centres unmarked) [Example 112, tert-butyl 4-(2-(5-(diethylamino)-1,3,4-oxadiazol-2-yl)-2-(4-fluorobenzamido)ethyl)piperidine-1-carboxylate]	31.6
COCCN(C)c1nnc(C(CC2CCN(C(=O)OC(C)(C)C)CC2)NC(=O)c2ccc(Cl)s2)o1 (centres unmarked) [Example 113, tert-butyl 4-(2-(5-chlorothiophene-2-carboxamido)-2-(5-((2-methoxyethyl)(methyl)amino)-1,3,4-oxadiazol-2-yl)ethyl)piperidine-1-carboxylate]	31.6
C#CCOc1ccc(C(=O)NC(CC2CCN(C(=O)OC(C)(C)C)CC2)c2ccccc2)cc1F (centres unmarked) [Example 114, tert-butyl 4-(2-(3-fluoro-4-(prop-2-yn-1-yloxy)benzamido)-2-phenylethyl)piperidine-1-carboxylate]	31.6
CC(C)(C)OC(=O)N1CCC(CC(NC(=O)c2ccc(Cl)s2)C2CCCC2)CC1 (centres unmarked) [Example 115, tert-butyl 4-(2-(5-chlorothiophene-2-carboxamido)-2-cyclopentylethyl)piperidine-1-carboxylate]	31.6
CC(C)(C)OC(=O)N1CCC(CC(NC(=O)c2ccc(F)s2)C2CCCC2)CC1 (centres unmarked) [Example 116, tert-butyl 4-(2-cyclopentyl-2-(5-fluorothiophene-2-carboxamido)ethyl)piperidine-1-carboxylate]	31.6

Structure (SMILES)	IC50 [nM]
O=C(NC(CC1CCN(C(=O)OCc2ccccc2)CC1)c1ccccc1)c1ccc(Cl)cc1 (centres unmarked) [Example 117, benzyl 4-(2-(4-chlorobenzamido)-2-phenylethyl)piperidine-1-carboxylate]	31.6
CCc1ccc(C(=O)NC(CC2CCN(C(=O)OC(C)(C)C)CC2)c2ccccc2)cc1 (centres unmarked) [Example 118, tert-butyl 4-(2-(4-ethylbenzamido)-2-phenylethyl)piperidine-1-carboxylate]	31.6
C=Cc1ccc(C(=O)NC(CC2CCN(C(=O)OC(C)(C)C)CC2)c2ccccc2)cc1 (centres unmarked) [Example 119, tert-butyl 4-(2-phenyl-2-(4-vinylbenzamido)ethyl)piperidine-1-carboxylate]	31.6
CCOC(=O)N1CCC(CC(NC(=O)c2ccc(F)cc2)c2ccccc2)CC1 (centres unmarked) [Example 120, ethyl 4-(2-(4-fluorobenzamido)-2-phenylethyl)piperidine-1-carboxylate]	39.8
O=C(NC(CC1CCN(C(=O)Oc2ccccc2)CC1)c1ccccc1)c1ccc(F)cc1 (centres unmarked) [Example 121, phenyl 4-(2-(4-fluorobenzamido)-2-phenylethyl)piperidine-1-carboxylate]	39.8
CCN(CC)c1ccc(C(CC2CCN(C(=O)OC(C)(C)C)CC2)NC(=O)c2ccc(F)cc2)cn1 (centres unmarked) [Example 122, tert-butyl 4-(2-(6-(diethylamino)pyridin-3-yl)-2-(4-fluorobenzamido)ethyl)piperidine-1-carboxylate]	39.8
COc1ccc(C(=O)N[C@@H](CC2CCN(C(=O)OC(C)(C)C)CC2)c2ccccc2)cn1 [Example 123, (S)-tert-butyl 4-(2-(6-methoxynicotinamido)-2-phenylethyl)piperidine-1-carboxylate]	39.8
CC(C)c1ccc(C(=O)NC(CC2CCN(C(=O)OC(C)(C)C)CC2)c2ccccc2)s1 (centres unmarked) [Example 124, tert-butyl 4-(2-(5-isopropylthiophene-2-carboxamido)-2-phenylethyl)piperidine-1-carboxylate]	39.8
CC(C)COC(=O)N1CCC(CC(NC(=O)c2ccc(Cl)cc2)c2ccccc2)CC1 (centres unmarked) [Example 125, isobutyl 4-(2-(4-chlorobenzamido)-2-phenylethyl)piperidine-1-carboxylate]	39.8
CC(C)(C)OC(=O)N1CCC(CC(NC(=O)c2ccc(Br)cc2)C2CCCC2)CC1 (centres unmarked) [Example 126, tert-butyl 4-(2-(4-bromobenzamido)-2-cyclopentylethyl)piperidine-1-carboxylate]	39.8
CCNc1nnc(C(CC2CCN(C(=O)OC(C)(C)C)CC2)NC(=O)c2ccc(Cl)s2)o1 (centres unmarked) [Example 127, tert-butyl 4-(2-(5-chlorothiophene-2-carboxamido)-2-(5-(ethylamino)-1,3,4-oxadiazol-2-yl)ethyl)piperidine-1-carboxylate]	39.8
CC(C)(C)OC(=O)N1CCC(CC(NC(=O)c2csc(Cl)c2)c2ccccc2)CC1 (centres unmarked) [Example 128, tert-butyl 4-(2-(5-chlorothiophene-3-carboxamido)-2-phenylethyl)piperidine-1-carboxylate]	39.8
CC(C)(C)OC(=O)N1CCC(C[C@@H](CCN2CCOCC2)NC(=O)c2ccc(Cl)s2)CC1 [Example 129, (S)-tert-butyl 4-(2-(5-chlorothiophene-2-carboxamido)-4-morpholinobutyl)piperidine-1-carboxylate]	39.8
Cc1ccc(C(=O)NC(CC2CCN(C(=O)OC(C)(C)C)CC2)c2ccccc2)cc1 (centres unmarked) [Example 130, tert-butyl 4-(2-(4-methylbenzamido)-2-phenylethyl)piperidine-1-carboxylate]	50.1
CC(C)(C)OC(=O)N1CCC(CC(NC(=O)c2cccs2)c2ccccc2)CC1 (centres unmarked) [Example 131, tert-butyl 4-(2-phenyl-2-(thiophene-2-carboxamido)ethyl)piperidine-1-carboxylate]	50.1
CC(C)(C)OC(=O)N1CCC(CC(NC(=O)c2ccc(F)cc2)c2ccc(OC3CCCCC3)nc2)CC1 (centres unmarked) [Example 132, tert-butyl 4-(2-(6-(cyclohexyloxy)pyridin-3-yl)-2-(4-fluorobenzamido)ethyl)piperidine-1-carboxylate]	50.1
CC(C)(C)OC(=O)N1CCC(CC(NC(=O)c2ccc(C3CC3)c(F)c2)c2ccccc2)CC1 (centres unmarked) [Example 133, tert-butyl 4-(2-(4-cyclopropyl-3-fluorobenzamido)-2-phenylethyl)piperidine-1-carboxylate]	50.1
COC(=O)N1CCC(CC(NC(=O)c2ccc(Cl)cc2)c2ccccc2)CC1 (centres unmarked) [Example 134, methyl 4-(2-(4-chlorobenzamido)-2-phenylethyl)piperidine-1-carboxylate]	50.1
CC(C)(C)OC(=O)N1CCC(CC(NC(=O)c2ccc(Cl)cc2)C2CCCCC2)CC1 (centres unmarked) [Example 135, tert-butyl 4-(2-(4-chlorobenzamido)-2-cyclohexylethyl)piperidine-1-carboxylate]	50.1
